Residues, ends and D or L forms follow the SMILES beside them. *: point of attachment. X1 = C[C@@H]1Cc2ccc3ccccc3c2/C1=C1\c2cc(C#CCCN=[N+]=[N-])ccc2Sc2ccc(C#CCCn3cc(C(=O)*)nn3)cc21
How the values were obtained:
PC-3 cells [1] = assay: UV-activated nanomechanical necrosis, live cell confocal microscopy, PC-3; type: cell-based, human; details: for Time of Full Necrosis / Time of Initial Necrosis / % acceleration for full necrosis: 355 nm UV; for % acceleration for full necrosis: versus UV upon blank cells; for selectivity for targeted PC-3 cells over non-targeted control cells (in words): NIH 3T3 and CHO as non-targeted controls
Method: (§1) Following the synthetic bilipid vesicle experiments, nanomechanical action upon live cells was studied using confocal microscopy aided by a super-resolution technique called Phase Modulation Nanoscopy. Applicants used two experimental methods. In the first method (Method A), the molecular motors were loaded into the cell media and the imaging was initiated within 5 minutes to 24 hours. In the second method, (Method B), the molecular motors were loaded into the cell media, incubated for 30 minutes to 24 hours, and then washed three times with fresh molecular motor-free media before imaging.
Next, Applicants used the smaller nanomachine, 3. Initial control experiments (blank) were performed without nanomachines being present. UV-induced (355 nm) PC-3 necrosis is not initiated until approximately scan 20 (corresponding to 300 second continuous scanning UV exposure, 400 nJ/voxel total dwell time), characterized by massive disruption and rupture of the mitochondrial network and subsequent well-pronounced auto-fluorescent signal detectable in the nucleoli and nucleus wall (FIG. 7A). This is observable by the nucleoli membrane permeabilization and DNA damage at the onset of necrosis. The UV-induced necrosis reaches final stages at approximately scan 40 (corresponding to 600 seconds) that is consistent with characteristic extracellular membrane rupture and homogenous cytosolic auto-fluorescence, indicating loss of cellular organelle boundaries.
(§2) Microscopy cells were seeded in untreated iBibi 100 μL live cell channels and allowed to grow to 40% to 60% confluence, at 37° C. in 5% CO2. At this stage, the medium was replaced and cells were treated with the studied nanomachines and co-stains as appropriate, with 0.1% DMSO (as detailed above) present in the final imaging medium. For live cell imaging, DMEM/F12 media (10% FBS) lacking phenol red was used from this point onwards. Following incubation, where Method B was used, the channels were washed with live cell imaging media and imaged using a purpose build incubator housing the microscope maintaining 37° C., 5% CO2 and 10% humidity.
(§3) All live cell imaging experiments used either NIH 3T3 mouse skin fibroblast cells, PC-3 cells, a grade 3 human prostate adenocarcinoma, or Chinese hamster ovary cells (CHO). These are all well-studied cell lines with discrete morphological compositions. Each molecular machine was used as a stock solution at 0.10 to 1.00 μM with total dimethyl sulfoxide (DMSO) concentrations not exceeding 0.1% in the final cell media in order to avoid unwanted cell membrane permeabilization, the DMSO being required for solubility of the organic nanomachines. All loading experiments are carried out in a light-suppressed manner and the possibility of induced or accelerated uptake due to interaction between the molecular motors and the applied co-stain has been eliminated using a series of individual and reversed loading experiments.
(§4) All experimental imaging parameters (i.e., laser beam size, confocal pinhole size, laser intensity, line scanning speed, scanning area (field of view, FOV), and line averaging sequences) were kept constant throughout the experiments. The accuracy and errors associated with the establishment of accelerated necrosis are determined based on one dual channel imaging sequence, which takes 15 seconds in total. This imaging sequence has been carefully established using untreated live cells.
Steady state fluorescence images were recorded using a PhMoNa enhanced Leica SP5 II LSCM equipped with a HCX PL APO 63×/1.40 NA LambdaBlue Oil immersion objective. As an initial control experiment to establish the UV-induced cell toxicity threshold, while mitigating voxel exposure and ensuring sufficient laser dwell time, an imaging sequence has been established to monitor cell morphological and physiological changes as a function of time. All experiments used cell-line-determined culture medium containing 0.1% DMSO. […]

HEK293 cells = assay: Whole cell patch clamp electrophysiology; type: cell-based, human
Method: FIGS. 16A-B show whole-cell patch clamp studies of the dynamic effects of UV-induced molecular mechanical action of compound 3 upon HEK293 cells. Also shown are control studies using compound 3 without UV activation, UV-exposed rotor-free control molecule 5, and no molecular additives x. Compounds 3 and 5 were used at 1.0 μM concentrations. […] Similarly, the rotor-free compound 5, and no molecular additive x, show no inward currents during UV illumination (center two traces). Cells were held at −70 mV in voltage clamp mode and UV exposure began 15 seconds after the start of the recording. Each recording is a biological replicate and all traces are shown (n=4 recordings from different cells for 3+UV; n=3 recordings from different cells for each other condition). […] The white arrows (lower right image) highlight membrane blebbing that appears only in the cells treated with UV-activated compound 3. The scale bar represents 10 μm and is applicable for each micrograph.
The dynamic effects of nanomechanical action upon cellular membranes were then studied through the whole cell patch clamp electrophysiology of human embryonic kidney 293 cells (HEK293) commonly used for electrophysiological interrogation. […] These inward currents were not observed in the absence of UV illumination or during UV illumination of non-rotor-bearing control 5 or UV illumination of untreated cells (FIG. 16A).

NIH 3T3 cells [2] = assay: UV-activated nanomechanical necrosis, live cell confocal microscopy, NIH 3T3; type: cell-based, mouse; details: for Time of Full Necrosis / Time of Initial Necrosis / % acceleration for full necrosis: 355 nm UV; for % acceleration for full necrosis: versus UV upon blank cells
Method: as §1, with “imaging. […]” for “imaging.”
as §2, §3, §4
(§5) Steady state fluorescence images were recorded using a PhMoNa enhanced Leica SP5 II LSCM equipped with a HCX PL APO 63×/1.40 NA LambdaBlue Oil immersion objective. As an initial control experiment to establish the UV-induced cell toxicity threshold, while mitigating voxel exposure and ensuring sufficient laser dwell time, an imaging sequence has been established to monitor cell morphological and physiological changes as a function of time. All experiments used cell-line-determined culture medium containing 0.1% DMSO.
(§6) The applied 100 Hz detection sequence was based on a bidirectional dual-channel continuous scanning method where a minimalistic non-damaging visible laser light (458 nm, 0.2 mW) is used in conjunction with the above detailed UV exposure. This is set as a 2 line/scan accumulation parallel acquisition sequence that is recorded as a function of time. Studied channels correspond to transmission images and UV-induced mitochondrial auto-fluorescence detected at 460 to 550 nm. Applicants further confirmed that the effectiveness of monitoring the UV-activated nanomechanical action on live cells using a conventional CW mercury-arc excitation source equipped with an epi-fluorescence setup consisting of a Zeiss Axiovert 200M inverted microscope, as discussed in FIGS. 18A-C. […]

PC-3 cells [3] = assay: Two-photon near-infra red activation, PI dye entry, PC-3; type: cell-based, human; details: PC-3, 1 μM, PI 200 nM
Method: (§7) Two-photon microscopy studies of NIH 3T3 cells were executed on a Nikon E600 upright confocal microscope coupled to a tuneable (710-950 nm Coherent MaiTai) multiphoton source operating at (20%) 240 mW power using a 166 lps scan speed and 128×128 pixel frame resolution for MP-illumination. Images (512×512 pixel, 166 lps) were recorded using a 543 nm (1 mW HeNe) laser combined with a 560 nm long-pass filter to record PI (200 nM) fluorescence and follow the onset of induced necrosis.
(§8) Two photon live cell microscopy studies were also executed on a Nikon E600 upright confocal microscope coupled to a tuneable (710-950 nm Coherent MaiTai) multiphoton source operating at (19.8%) 240 mW power at 720 nm using 166 lines/sec scan speed and 128×128 pixel frame resolution for MP-illumination. An oil immersion Nikon IR objective (×60/1.4 NA) was used. Images (512×512 pixel, 166 l/s) were recorded using a 543 nm (1 mW HeNe) laser combined with a 570 nm long-pass filter to record PI dyes (200 nM). Fluorescence was measured as 2 frame averaged images in order to follow the onset of induced necrosis. Necrosis times have been assigned to detectable PI signals in the nucleolus.

NIH 3T3 cells [4] = assay: Two-photon near-infra red activation, PI dye entry, NIH 3T3; type: cell-based, mouse; details: NIH 3T3, 1 μM, PI 200 nM
Method: as §7, §8

PC-3 cells [5] = assay: 24 hours incubation without UV: proliferation and apoptosis (Annexin V, Image Cytometry); type: cell-based, human
Method: When PC-3 cells are loaded at 0.5 or 1.0 μM with 9 or 10, washed three times (Method B) or unwashed (Method A) after 24 hours of incubation, the cells visually appear without major signs of toxicity. However, the cells which had been incubated with 9 or 10 over 24 hours were not dividing as prolifically. The cultures appear to be populated ˜25% less in the presence of 9 and 20% of the cells in 10 compared to control untreated cells (FIGS. 12A-E).
In order to further investigate this point, these cells were collected via gentle centrifugation and re-suspended in fresh PBS and analyzed by Image Cytometry. Using Annexin V, these cells were all confirmed to show signs of apoptosis at 93±5%. This is in contrast to the remaining coverslip surface-bound cells that appear healthy.
These latter types of non-apoptotic cells show identical percentage of necrosis acceleration upon subsequent UV-activation of the cell-surface bound nanomachines compared to their shorter incubation time analogues. Thus, it appears that, upon 24 hour incubation, a noticeable amount of cells have nanomachines 9 and 10 either bound to vital cell membrane channels or transport proteins or they are internalized, subsequently shutting down some natural homeostatic mechanisms that leads to programmed cell death (FIGS. 12A-E). Furthermore, this is not the case with shorter incubation times regardless of whether Method A or B is used.

CHO cells = assay: UV-activated nanomechanical necrosis, live cell confocal microscopy, CHO; type: cell-based, Chinese hamster; details: 355 nm UV; for % acceleration for full necrosis: versus UV upon blank cells
Method: as §1, with “imaging. […]” for “imaging.”
as §2, §3, §4, §5, §6

[6] = PC-3, Method B (washed three times)
[7] = NIH 3T3, Method B (washed three times)

Row | Structure (SMILES) | Time of Full Necrosis (PC-3 cells [1]; PC-3, Method A (no washing)) | Time of Initial Necrosis (PC-3 cells [1]; PC-3, Method A (no washing)) | % acceleration for full necrosis (PC-3 cells [1]; PC-3, Method A) | Time of Full Necrosis (NIH 3T3 cells [2]; NIH 3T3, Method A (no washing)) | Time of Initial Necrosis (NIH 3T3 cells [2]; NIH 3T3, Method A (no washing)) | % acceleration for full necrosis (NIH 3T3 cells [2]; NIH 3T3, Method A) | PI dye entry upon two-photon near-infra red illumination (in words) (PC-3 cells [3]) | PI dye entry upon two-photon near-infra red illumination (in words) (NIH 3T3 cells [4]) | selectivity for targeted PC-3 cells over non-targeted control cells (in words) (PC-3 cells [1]) | Time of Full Necrosis (PC-3 cells [1]; [6]) | Time of Initial Necrosis (PC-3 cells [1]; [6]) | % acceleration for full necrosis (PC-3 cells [1]; PC-3, Method B) | Time of Full Necrosis (NIH 3T3 cells [2]; [7]) | Time of Initial Necrosis (NIH 3T3 cells [2]; [7]) | % acceleration for full necrosis (NIH 3T3 cells [2]; NIH 3T3, Method B) | further results
1 | C[C@@H]1Cc2ccc3ccccc3c2C1=C1c2cc(C#CCCO)ccc2Sc2ccc(C#CCCO)cc21 (racemic) [Compound 3] | 300 s | 135 s | 50% | 300 s | 150 s | 50% | resulting in Propidium Iodide (PI) dyes entering | resulting in Propidium Iodide (PI) dyes entering |  |  |  |  |  |  |  | PI entry into cells upon UV-activated membrane disruption (in words) (PC-3 cells [1]; PC-3, propidium iodide 0.10 μM in medium): PI enters the cell; membrane currents without UV illumination (in words) (HEK293 cells; HEK293, 1.0 μM, 4 minute recording, no UV): no change in membrane currents; inward ionic currents during UV illumination (in words) (HEK293 cells; HEK293, Method B, UV 355 nm, 1.0 μM): inward ionic currents were produced; radius of membrane blebs (HEK293 cells; HEK293, after UV illumination): 3.8±0.2 μm
2 | C[C@H](NC(=O)[C@H](CCC(=O)O)NC(=O)CNC(=O)[C@H](CC(=O)O)NC(=O)CCc1cn(CCC#Cc2ccc3c(c2)/C(=C2/c4c(ccc5ccccc45)C[C@H]2C)c2cc(C#CCCN=[N+]=[N-])ccc2S3)nn1)C(N)=O [Compound 8] | 360 s | 150 s | 40% | 375 s | 150 s | 37.5% | resulting in Propidium Iodide (PI) dyes entering | resulting in Propidium Iodide (PI) dyes entering | No selectivity was observed | 360 s | 150 s | 40% | 360 s | 150 s | 40% | 
3 | CC(C)[C@H](NC(=O)[C@H](CCCNC(=N)N)NC(=O)[C@@H](NC(=O)[C@H](CC(N)=O)NC(=O)[C@H](CO)NC(=O)c1cn(CCC#Cc2ccc3c(c2)/C(=C2/c4c(ccc5ccccc45)C[C@H]2C)c2cc(C#CCCN=[N+]=[N-])ccc2S3)nn1)[C@@H](C)O)C(=O)N[C@@H](C)C(=O)N1CCC[C@H]1C(=O)O [Compound 10] (X1-SNTRVAP-OH) | 420 s | 195 s | 30% | 540 s | 270 s | 10% |  |  | selectively target the PC-3 cell line over CHO cells | 435 s | 210 s | 27.5% | 600 s | 300 s | 0% | accelerated necrosis upon UV-activation after washing and further 24 hours in rotor free media (PC-3 cells [1]; PC-3, incubated 30 minutes to 4 hours, washed three times, 24 hours rotor free media): 25%; UV-accelerated nanomechanical necrosis after 24 hours incubation (in words) (NIH 3T3 cells [2]; NIH 3T3, incubated 24 hours): less than half the efficiency compared to identical experiments using the targeted PC-3 cells; cultures populated less compared to control untreated cells (PC-3 cells [5]; PC-3, 0.5 or 1.0 μM, 24 hours of incubation, no UV): 20%; mobilized cells showing signs of apoptosis (Annexin V) (PC-3 cells [5]; PC-3, 24 hours incubation, cells collected from culture media): 93±5%; Time of Full Necrosis (CHO cells; Method A (no washing)): 540 s; Time of Initial Necrosis (CHO cells; Method A (no washing)): 270 s; % acceleration for full necrosis (CHO cells; Method A): 10%; Time of Full Necrosis (CHO cells; Method B (washed three times)): 600 s; Time of Initial Necrosis (CHO cells; Method B (washed three times)): 300 s; % acceleration for full necrosis (CHO cells; Method B): 0%

Reference: patent US11565003B2, “Mechanical opening of lipid bilayers by molecular nanomachines” (William Marsh Rice University, priority 2016, dated 2023)
